From patent US7910594B2 (priority 2002, dated 2011)
“And” between values parts separate entries of the source, which are not always exact repeats. Equal entries are not always repeated.

Legend:
[1] = test system: Folate receptor-negative 4T-1 tumor; assay: in vivo activity on folate receptor-negative tumor; parameters: species or system mice (female Balb/C strain); conditions: i.p. qd×30 from day 4 post tumor inoculation; FIG. 12
Method: Six to seven week-old mice (female Balb/C strain) were obtained from Harlan, Inc., Indianapolis, Ind. The mice were maintained on Harlan's folate-free chow for a total of three weeks prior to the onset of and during this experiment. Folate receptor-negative 4T-1 tumor cells (1×10^6 cells per animal) were inoculated in the subcutis of the right axilla. The formulations indicated in FIG. 12 were dosed intraperitoneally qd×30 starting on day 4 post tumor inoculation, and tumor volume as well as animal survival were monitored daily. EC72 had no activity against a subcutaneous folate-receptor-negative 4T-1 tumor.

[2] = test system: Folate receptor-positive M109 P0 tumor cells; assay: in vivo dose response, intraperitoneal M109 tumor; parameters: species or system mice (female Balb/C strain)
Method: Six to seven week-old mice (female Balb/C strain) were obtained from Harlan, Inc., Indianapolis, Ind. The mice were maintained on Harlan's folate-free chow for a total of three weeks prior to the onset of and during this experiment. Folate receptor-positive M109 P0 tumor cells (0.5×10^6 cells per animal) were inoculated in the upper peritoneal cavity 4 days prior to the onset of dosing. The formulations indicated in FIG. 11 were dosed intraperitoneally qd×30 starting on day 4 post tumor inoculation, and animal survival was monitored daily.

[3] = for myelosuppression / kidney damage: M109 tumor-bearing mice, daily i.p. treatment
Method: (§1) The effectiveness of EC72 for promoting survival of tumor-bearing mice was evaluated in vivo using M109 tumor-bearing Balb/c mice. There were two goals of this study: i) to determine if daily intraperitoneal treatment with EC72 could prolong the lives of folate receptor-positive tumor-bearing mice beyond what mitomycin C could do when tested under an identical dosing regimen, and ii) to examine the pathological effects of EC72 treatment on normal tissues, including kidney tissue which is folate receptor-positive tissue. Although most normal tissues contain very low levels of folate receptor, the proximal tubules of the kidney express appreciable numbers of folate receptors. Thus, the in vivo evaluation of EC72 also enabled evaluation of the extent of kidney-specific damage caused by the systemic administration of folate-mitomycin conjugates.
Major organs were also collected in both the EC72 and mitomycin C-treated animals (following euthanasia), and they were sent to an independent pathologist for examination.

[4] = test system: folate receptor-positive KB cells; assay: in vitro cytotoxicity assay (bromodeoxyuridine-based ELISA); type: cell-based
Method: A compound denominated as EC72 (see scheme 1) was evaluated using an in vitro cytotoxicity assay that predicts the ability of the drug to inhibit the growth of folate receptor-positive KB cells. This compound comprises a folate analog linked to mitomycin C prepared according to the protocol depicted in scheme 2. The KB cells were exposed for 15 minutes at 37° C. to the indicated concentrations of EC72, free mitomyicn C (drug #1), or to EC72 and at least a 100-fold excess of folic acid. The cells were then rinsed once with fresh culture medium and incubated in fresh culture medium for 72 hours at 37° C. Cell viability was assessed using a bromodeoxyuridine-based ELISA assay.

[5] = target: T1, folate receptors (FRs) on KB cells (Homo sapiens, UniProt P15328); assay: relative affinity assay (3H-folic acid displacement); type: binding; conditions: 100 nM 3H-folic acid, 15 min on ice, folic acid set to 1, FIG. 9
T1 construct: FR-positive KB cells were gently trypsinized; endogenous in cells; host or cells: KB cells
T1 sequence (P15328 25-234): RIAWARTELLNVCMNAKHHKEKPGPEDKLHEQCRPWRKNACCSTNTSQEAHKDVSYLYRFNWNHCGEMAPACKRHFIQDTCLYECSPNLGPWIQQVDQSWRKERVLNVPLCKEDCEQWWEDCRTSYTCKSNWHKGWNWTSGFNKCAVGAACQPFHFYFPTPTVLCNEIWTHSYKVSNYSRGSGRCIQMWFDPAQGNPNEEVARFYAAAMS
Method: The affinity of EC72 for folate receptors (FRs) relative to folate was determined according to a previously described method (Westerhof, G. R., J. H. Schomagel, et al. (1995) Mol. Pharm. 48: 459-471) with slight modification. Briefly, FR-positive KB cells were gently trypsinized in 0.25% trypsin in phosphate-buffered saline (PBS) at room temperature for 3 minutes and then diluted in folate-free RPMI (FFRPMI) containing 10% heat-inactivated fetal calf serum (HIFCS). Following a 5 min 800×g spin and one PBS wash, the final cell pellet was suspended in FFRPMI 1640 (no serum). Cells were incubated for 15 min on ice with 100 nM ^3H-folic acid in the absence and presence of increasing concentrations of EC72 or folate. Samples were centrifuged at 10,000×g for 5 min, and then the cell pellets were suspended in buffer, transferred to individual vials containing 5 mL of scintillation cocktail, and then counted for radioactivity. Negative control tubes contained only the ^3H-folic acid in FFRPMI (no competitor). Positive control tubes contained a final concentration of 1 mM folic acid, and CPMs measured in these samples (representing non-specific binding of label) were subtracted from all samples.

[6] = test system: M109 tumor; assay: survival of intraperitoneal M109 tumor-bearing mice; type: in vivo, Balb/c mice; conditions: for increase in lifespan (ILS): 1800 mmoles/kg i.p. once daily beginning on day 5 after tumor cell inoculation, FIG. 2
Method: as §1
Balb/c mice (5 mice/group) were given an intraperitoneal injection with 1×10^6 M109 cells. The mice were then given an intraperitoneal injection once daily with […]/kg of EC72 or mitomycin C (control mice were injected with PBS) beginning on day 5 after tumor cell innoculation (ILS=increased life span (i.e., median survival time)).
Thus, a group of animals were given intraperitoneal injections of EC72 plus a 10-fold excess of free folic acid.

[7] = test system: subcutaneous M109 tumors; assay: growth of subcutaneous M109 tumors, EC72 i.v. then i.p.; type: in vivo, Balb/c mice; conditions: 1800 nmoles/kg qd×5 for six weeks from day 4, i.v. (12 injections) then i.p.; FIG. 4
Method: The anti-tumor activity of EC72 when administered intravenously (i.v.) to tumor-bearing animals, was evaluated in Balb/c mice bearing subcutaneous M109 tumors. Thus, a protocol similar to that described in Example 3 was followed except that the compounds were administered i.v. (described below) and the tumors were subcutaneous. Four days post tumor inoculation in the subcutis of the right axilla, mice were injected i.v. qd×5 for six weeks with 1800 nmoles/kg of EC72.
Tumor growth was determined at 2-day intervals in each treatment group until the tumors grew to at least 1500 mm3. The tail veins became excessively bruised and inaccessible after 12 i.v. injections so dosing was continued i.p. following the same qd×5 schedule. […] Thus, EC72 may not have reached the distal subcutaneous tumor efficiently following i.p. administration of EC72, a limitation not encountered when EC72 was administered i.v. during the initial phase of the therapy.

[8] = test system: FR-positive KB cells; assay: in vitro dose response, 3H-thymidine incorporation (DNA synthesis); type: cell-based; conditions: 0.1 mM folic acid (competitor)
Method: KB cells were seeded in 12-well Falcon plates and allowed to form near-confluent monolayers overnight. Following one rinse with 1 mL of fresh FFRPMI/HIFCS, each well received 0.5 mL of FFRPMI/HIFCS containing increasing concentrations of EC72 in the presence of absence of 0.1 mM folic acid (competitor). Cells were incubated for 15 min at 37° C. and then rinsed four times with 0.5 mL of FFRPMI/HIFCS. 0.5 mL of fresh FFRPMI/HIFCS was then added to each well, and cells were chased for a total of 72 h at 37° C. Two hours before the end of the incubation, media was replaced in each well with 0.5 mL FFRPMI/HIFCS containing 5 μCi of ^3H-thymidine. Monolayers were then washed 3 times with 0.5 mL of PBS and then precipitated with 1 ml of 10% cold trichloroacetic acid. The trichloroacetic acid solution was collected and discarded, and precipitated material was sequentially dissolved in 0.5 mL 0.25 N NaOH and 1% sodium dodecyl sulfate for 15 min at room temperature. Samples were then counted for radioactivity using a Packard gamma counter. Final tabulated values were expressed as a percentage of radioactivity incorporated into untreated cell samples.

[9] = test system: subcutaneous M109 tumors; assay: survival of mice bearing subcutaneous M109 tumors, delayed start of EC72 treatment; type: in vivo, Balb/c mice; conditions: for Median Survival: EC72 1800 nmol/kg i.v. qd×5 for 4 weeks
Method: The protocol described in Example 4 was followed except that mice were injected i.v. throughout the treatment period and were treated with EC72 for 4 weeks. Balb/c mice (n=5) were injected subcutaneously in the subcutis of the right axilla with 1×10^6 M109 cells and were treated qd×5 for 4 weeks with 1800 nmol/kg of EC72. EC72 was administered i.v. beginning on the designated day post tumor cell inoculation (PTI; see Table 3). Animal survival was monitored daily, and mice showing a complete response were those that were tumor-free at day 60 PTI.

[10] = toxicity of TAXOL / EC72 regimens (weight loss, blood chemistry, tissue pathology); type: in vivo, Balb/c mice; parameters: key to Liver: mice with Degeneration / Liver: grade of Degeneration: “0.5” = Occasionally present; “1” = Mild; “2” = Moderate; “3” = Marked
Text: The toxicity of each tested regimen was also monitored by measuring weight loss, blood chemistry, and tissue pathology.

[11] = test system: subcutaneous M109 tumors; assay: subcutaneous M109 tumors treated with TAXOL with or without EC72; type: in vivo, Balb/c mice
Method: The protocol described in Example 5 was followed except that animals were injected i.v. at the beginning of the treatment period and were injected i.p. later in the treatment period.
Tumor volumes were calculated using the equation V=a×b^2/2, where “a” is the length of the tumor and “b” is the width expressed in millimeters. The tumors were measured using calipers.

[12] = tissue pathology, TAXOL 15 mg/kg, n = 6 mice
[13] = Taxol 15 mg/kg with EC72 0 or 1800 nmol/kg, 6 mice/cohort
[14] = Taxol 15 mg/kg with EC72 0 or 1800 nmol/kg, 6 mice/cohort, listed as Taxol

## CO[C@@]12[C@H](COC(N)=O)C3=C(C(=O)C(C)=C(NCCSSC[C@H](NC(=O)CC[C@H](NC(=O)c4ccc(NCc5cnc6nc(N)[nH]c(=O)c6n5)cc4)C(=O)O)C(=O)O)C3=O)N1C[C@@H]1N[C@@H]12 [EC72]
[1]
  activity against subcutaneous folate-receptor-negative 4T-1 tumor: no activity
[2]; 1800 nmol/kg i.p. qd×30
  animals showing a complete response: 1 of 4
[2]; 1800 nmol/kg i.p. qd×30 from day 4 post tumor inoculation
  increase in lifespan: 240%
[2]; 100, 400, 1800 nmol/kg i.p. qd×30 from day 4, FIG. 11
  dose dependence of activity in M109 tumor-bearing mice: dose-dependent activity
[3]
  myelosuppression / kidney damage: no evidence of myelosuppression or kidney damage
[3]; following 30 consecutive daily injections
  blood-urea-nitrogen and creatine levels: normal
[4]; 15 minutes exposure at 37° C., 72 hours chase, FIG. 1
  cytotoxicity compared with free mitomycin C: equal to that of free mitomycin C
[4]; at least a 100-fold excess of folic acid
  cytotoxicity in the presence of excess free folic acid: blocked
[5]
  relative affinity for the folate receptor: 0.59
[6]
  increase in lifespan (ILS): 178%
[6]; 30 daily i.p. injections
  animals tumor-free by day 70 post tumor cell inoculation: 1 of 4
[6]; EC72 plus a 10-fold excess of free folic acid
  outcome of group coinjected with folic acid: all mice in this group eventually died from the tumor burden
[7]
  effect on growth of subcutaneous M109 tumor: effective in delaying the growth of the M109 tumor
[8]
  DNA synthesis inhibition in the presence of excess free folic acid: effectively blocked any DNA synthesis inhibition
[9]; initiation PTI 1
  Median Survival: 56 days
  % ILS: 133%
[9]; initiation PTI 3
  Median Survival: 54 days
  % ILS: 125%
[9]; initiation PTI 7
  Median Survival: 28 days
  % ILS: 17%
[9]; initiation PTI 12
  Median Survival: 26 days
  % ILS: 8%
[9]; EC72 treatment initiated 12 days PTI, subcutaneous tumor model
  anti-tumor response of EC72 alone: failed to produce an anti-tumor response
[9]; initiation PTI 1, n = 5
  Complete Responses (tumor-free at day 60 PTI): 2 of 5 and 2
  Partial Responses: 3 of 5 and 3
[9]; initiation PTI 3, n = 5
  Complete Responses (tumor-free at day 60 PTI): 0
  Partial Responses: 5
[9]; initiation PTI 7, n = 5
  Complete Responses (tumor-free at day 60 PTI): 0
  Partial Responses: 5
[9]; initiation PTI 12, n = 5
  Complete Responses (tumor-free at day 60 PTI): 0 of 5 and 0
  Partial Responses: 5

## CC(=O)O[C@H]1C(=O)[C@@]2(C)[C@H]([C@H](OC(=O)c3ccccc3)[C@]3(O)C[C@H](OC(=O)[C@H](O)[C@@H](NC(=O)c4ccccc4)c4ccccc4)C(C)=C1C3(C)C)[C@]1(OC(C)=O)CO[C@@H]1C[C@@H]2O [TAXOL®, paclitaxel]
[10]; TAXOL 20 mg/kg with or without EC72 1800 nmol/kg
  appearance and body weight during dosing: appeared sick, experienced weight loss
[10]; [12]
  Bone: mice Normal: 6
  Heart: mice Normal: 6
  Kidney: mice Normal: 6
  Liver: mice Normal: 5
  Spleen: mice Normal: 6
[10]; tissue pathology, grade in brackets
  Liver: grade of Degeneration: 1(1)
[10]; tissue pathology, number before the bracket, n = 6 mice
  Liver: mice with Degeneration: 1(1)
[11]; TAXOL 15 mg/kg, from day 12 PTI
  day PTI until which tumors failed to grow: 21 day PTI
[11]; TAXOL 20 mg/kg i.v. with or without EC72 1800 nmol/kg qd×5 for 4 weeks, from day 12 PTI, FIG. 7
  log cell kill (LCK): 1.3
[11]; TAXOL 20 mg/kg, from day 12 PTI
  day PTI until which tumors failed to grow: 29 day PTI
[11]; TAXOL 20 mg/kg, n=5
  long term survivors: none of the 5 mice
[11]; [13]
  CR (complete response): 2 of the 6
  NR (no response): 0
  PR (partial response): 4 of the 6
[11]; [14]
  CR (complete response): 2
  PR (partial response): 4
[11]; Taxol 15 mg/kg with EC72 0 or 1800 nmol/kg, from day 12 PTI, 6 mice/cohort, FIG. 8
  Log Cell Kill (LCK): 0.6

## CO[C@@]12[C@H](COC(N)=O)C3=C(C(=O)C(C)=C(N)C3=O)N1C[C@@H]1N[C@@H]12 [mitomycin C, reference compound]
[3]
  myelosuppression / kidney damage: extensive myelosuppression
[3]; mouse, in vivo, ip
  cause of death of treated animals: died from apparent mitomycin C-related side effects
[6]
  increase in lifespan (ILS): 39%
[6]; repeat experiment, 30 daily i.p. injections, FIG. 3
  increased life span (median survival time) over PBS control group: ~25%
